{"source": "patent US20130252334A1", "about": "“METHOD OF USING TET-INDUCIBLE TRANSGENES” (UNIVERSITY OF ROCHESTER, priority 2010, published 2013)", "origin": "cited, not measured here", "key": {"tet repressor": {"biological_target": "tet repressor (Escherichia coli, UniProt P04483)", "sequence (P04483 whole entry)": "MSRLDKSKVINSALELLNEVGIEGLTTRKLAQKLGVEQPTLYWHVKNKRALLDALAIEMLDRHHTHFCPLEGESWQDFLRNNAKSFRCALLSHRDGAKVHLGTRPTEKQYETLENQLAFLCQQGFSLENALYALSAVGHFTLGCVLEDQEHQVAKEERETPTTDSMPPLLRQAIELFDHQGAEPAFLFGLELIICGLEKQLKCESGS", "details": "relative to tetracycline; Zhu et al. 2007; cited from earlier work"}, "rtTA": {"tested_on": "rtTA", "details": "compared to Dox; Zhu et al. 2007; cited from earlier work"}, "[1]": {"details": "versus other related compounds; cited from earlier work"}}}
{"molecule": "C[C@H]1c2ccc(C(C)(C)C)c(O)c2C(O)=C2C(=O)[C@]3(O)C(O)=C(C(N)=O)C(=O)[C@@H](N(C)C)[C@@H]3[C@@H](O)[C@@H]21", "note": "[9-TB, 9-t-butyl doxycycline]", "values": [{"measurement": "binding affinity on the tet repressor, fold higher", "setting": "tet repressor", "result": 10, "unit": "fold"}, {"measurement": "potency in activating transcription from the rtTA", "setting": "rtTA", "result": 10, "unit": "times"}, {"measurement": "hydrophobicity/lipophilicity", "setting": "[1]", "result": "much more hydrophobic/lipophylic than other related compounds"}]}
